The text below walks through data of patent EP4759807A1, “PROTEOLYSIS TARGETING CHIMERA COMPOUND FOR DEGRADING IRAK4 AND USE THEREOF” (Shenzhen Zhongge Biological Technology Co., Ltd., priority 2023, dated 2025).

Counter-ions that a name gives are not always drawn. Like-named read-outs stand apart in the source and are kept apart here.

The target in the test is T1, IRAK4 (Homo sapiens, UniProt Q9NWZ3).
T1 sequence (Q9NWZ3 1-460): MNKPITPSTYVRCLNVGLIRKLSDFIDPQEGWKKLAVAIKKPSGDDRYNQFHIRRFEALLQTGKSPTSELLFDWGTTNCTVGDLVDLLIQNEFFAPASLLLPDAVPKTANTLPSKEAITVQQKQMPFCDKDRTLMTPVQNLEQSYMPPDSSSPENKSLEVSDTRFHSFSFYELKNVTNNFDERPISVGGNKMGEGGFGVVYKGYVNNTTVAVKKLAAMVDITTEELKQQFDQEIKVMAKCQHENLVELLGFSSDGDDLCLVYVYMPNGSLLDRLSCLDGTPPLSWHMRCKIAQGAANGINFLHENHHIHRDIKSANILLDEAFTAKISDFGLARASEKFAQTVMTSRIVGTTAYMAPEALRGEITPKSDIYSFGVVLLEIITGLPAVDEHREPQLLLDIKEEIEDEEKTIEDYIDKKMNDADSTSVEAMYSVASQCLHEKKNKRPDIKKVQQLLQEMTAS
Nature of the test: Hibit fluorescence detection of proteolysis (IRAK4-HiBiT in HEK293T cells). Format: cell-based. The arrangement: host or cells: HEK293T (ATCC). The note with it: for Dmax: HEK-293T. A digest of the protocol: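 Degradation read-out: luminescence from lytic HiBiT detection (15 min, room temperature) after 24 h compound exposure (37 °C, 5% CO2) of HEK293T cells transiently expressing IRAK4 fused to a HiBiT tag. Data fitted to a bell-shaped four-parameter model giving two EC50 values.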
On the technique in general: With HiBiT, luminescence reflects the tagged protein that the partner subunit can reach.

Setting [1] is: IRAK4-HiBiT, HEK293T cells, 24 h.
The mark [2] stands for this setting: IRAK4-HiBiT, HEK293T cells, 24 h, read-out: Dmax.
Setting [3] is: IRAK4-HiBiT, HEK293T cells, 24 h, read-out: DC50.

In the case of `Cn1c(=O)n(C2CCC(=O)NC2=O)c2cccc(N3CC(N4CCN(C[C@H]5CC[C@H](n6cc(-n7cc(-c8ccc9cc(C(N)=O)cnn89)nn7)c(C(F)F)n6)CC5)CC4)C3)c21` (stereo partly shown) [Example 63, 7-(1-(3-(difluoromethyl)-1-((1r,4r)-4-((4-(1-(1-(2,6-dioxopiperidin-3-yl)-3-methyl-2-oxo-2,3-dihydro-1H-benzo[d]imidazol-4-yl)azetidin-3-yl)piperazin-1-yl)methyl)cyclohexyl)-1H-pyrazol-4-yl)-1H-1,2,3-triazol-4-yl)pyrrolo[1,2-b]pyridazine-3-carboxamide], the Dmax fell in the range of 60 to 70%. This compound also registered a DC50 under setting [1] of less than 500 pM.
Turning to `Cc1c(/C=C2\C(=O)Nc3ccc(S(=O)(=O)Nc4ccc(F)cc4)cc32)[nH]c2cc(N3CCN(CC4CCN(c5ccc(C(=O)NC6CCC(=O)NC6=O)c(F)c5)CC4)CC3)ccc12` (stereo not shown) [Example 22, N-(2,6-dioxopiperidin-3-yl)-2-fluoro-4-(4-{[4-(2-{[(3Z)-5-[(4-fluorophenyl)sulfamoyl]-2-oxo-2,3-dihydro-1H-indol-3-ylidene]methyl}-3-methyl-1H-indol-6-yl)piperazin-1-yl]methyl}piperidin-1-yl)benzamide], the Dmax under setting [2] is less than 60%. The DC50 under setting [3] was greater than 5000 pM.
For `Cn1c(=O)n(C2CCC(=O)NC2=O)c2cccc(N3CCC(N4CCN(C[C@H]5CC[C@H](n6cc(-n7cc(-c8cnn9ccc(N%10CCC[C@H](N)C%10)nc89)nn7)c(C(F)F)n6)CC5)CC4)CC3)c21` (stereo partly drawn) [Example 150, 3-(4-(4-(1R,4R)-4-(4-(4-(5-(S)-3-aminopiperidin-1-yl)pyrazolo[1,5-a]pyrimidin-3-yl)-1H-1,2,3-triazol-1-yl)-3-(difluoromethyl)-1H-pyrazol-1-yl)cyclohexyl)methyl)piperazin-1-yl)piperidin-1-yl)-3-methyl-2-oxo-2,3-dihydro-1H-benzoimidazol-1-yl)piperidine-2,6-dione hydrochloride], the Dmax was greater than 80%. Under setting [1], this compound displayed a DC50 of less than 500 pM.
On to `Cn1c(=O)n(C2CCC(=O)NC2=O)c2cccc(N3CCC4(CC3)CN(C[C@H]3CC[C@H](n5cc(-n6cc(-c7cnn8ccc(N9CCOCC9)nc78)nn6)c(C(F)F)n5)CC3)C4)c21` (stereo partly shown) [Example 47], for which the Dmax fell in the range of 70 to 80%. The DC50 under setting [1] is less than 500 pM.
Taken in the same sequence, the figures for `NC(=O)c1cnn2c(-c3cn(-c4cn([C@H]5CC[C@H](CN6CCN(c7ccc(C(=O)NC8CCC(=O)NC8=O)c(F)c7)CC6)CC5)nc4C(F)F)nn3)ccc2c1` (stereo partly shown) [Example 31] were 70 to 80% and greater than 5000 pM.
As to `NC(=O)c1cnn2c(-c3cn(-c4cn(C5CCN(CC6CCN(c7ccc8c(c7)C(=O)N(C7CCC(=O)NC7=O)C8=O)CC6)CC5)nc4C(F)F)nn3)ccc2c1` (stereo not shown) [Example 94, 7-(1-(3-(difluoromethyl)-1-(1-((1-(2-(2,6-dioxopiperidin-3-yl)-1,3-dioxoisoindolin-5-yl)piperidin-4-yl)methyl)piperidin-4-yl)-1H-pyrazol-4-yl)-1H-1,2,3-triazol-4-yl)pyrrolo[1,2-b]pyridazine-3-carboxamide], under setting [2], the Dmax is less than 60%. The DC50 under setting [3] is less than 500 pM.
As to `Cn1c(=O)n(C2CCC(=O)NC2=O)c2cccc(NC[C@H]3CC[C@@H](N(C)C[C@H]4CC[C@H](n5cc(-n6cc(-c7cnn8ccc(N9CCOCC9)nc78)nn6)c(C(F)F)n5)CC4)CC3)c21` (stereo partly drawn) [Example 21, 3-(4-((((1S,4s)-4-((((1r,4R)-4-(3-(difluoromethyl)-4-(4-(5-morpholinopyrazolo[1,5-a]pyrimidin-3-yl)-1H-1,2,3-triazol-1-yl)-1H-pyrazol-1-yl)cyclohexyl)methyl)(methyl)amino)cyclohexyl)methyl)amino)-3-methyl-2-oxo-2,3-dihydro-1H-benzo[d]imidazol-1-yl)piperidine-2,6-dione], the Dmax was less than 60%. The DC50 under setting [1] was less than 500 pM.
Taken in the same sequence, the figures for `Cn1c(=O)n(C2CCC(=O)NC2=O)c2cccc(N3CCN(C4CCN(C[C@H]5CC[C@H](n6cc(-n7cc(-c8ccc9cc(C(N)=O)cnn89)nn7)c(C(F)F)n6)CC5)CC4)CC3)c21` (stereo partly shown) [Example 71] were greater than 80% and less than 500 pM.
